Laboratory results as given in patent US10633419B2, “Immunomodulators” (BRISTOL-MYERS SQUIBB COMPANY, priority 2014, dated 2020).
Starred links: 1 amine or outer side, 2 acyl side, 3 side chain; linkers in the order of their positions; H or OH if unused. Positions of bridges follow the written chain, without caps; N, C: chain ends. Non-standard residues stand in square brackets, D forms with d. Residues, ends and D or L forms follow the SMILES beside them. Groups on a side chain read outwards from the residue. ξ: configuration not given here. *: point of attachment. X31 = CCCCCCCCCCCCCCCC(=O)NCCCC[C@H](NC(=O)[C@H](CC(=O)O)CC(=O)CCOCCOCCOCCOCCOCCOCCN*)C(N)=O; X12 = O=C(O)CCCCCCCCCCCCCCCCCCC(=O)N[C@@H](CCC(=O)NCCCOCCOCCOCCCN*)C(=O)O; Dap(Nα-HOOC(CH2)16CO)OH = O=C(O)CCCCCCCCCCCCCCCCC(=O)N[C@@H](CN*)C(=O)O; Trp(1-CH2COOH) = N[C@@H](Cc1cn(CC(=O)O)c2ccccc12)C(=O)O; X23 = O=C(CCCCOCCOCCOCCCN[*:3])C[C@H](N[*:1])C(=O)[*:2]; C16 diacid = O=C(O)CCCCCCCCCCCCCCC(=O)*; γGlu = O=C(O)[C@H](CCC(=O)[*:2])N[*:1]; d(cisHyp) = O=C(O)[C@H]1C[C@@H](O)CN1; NH(CH2)12COOH = O=C(O)CCCCCCCCCCCCN*; ξPro(4R-OH) = O=C(O)C1C[C@@H](O)CN1; PEG6 = NCCOCCOCCOCCOCCOCCOCCC(=O)O; Hyp = O=C(O)[C@@H]1C[C@@H](O)CN1; NMeNle = CCCC[C@H](NC)C(=O)O; AEEEA = NCCOCCOCCOCC(=O)O; NMeA = CN[C@@H](C)C(=O)O; Pra = C#CC[C@H](N)C(=O)O; Aun = NCCCCCCCCCCC(=O)O; Dab = NCC[C@H](N)C(=O)O; Dap = NC[C@H](N)C(=O)O; ξC = NC(CS)C(=O)O

These compounds were tested against T1, PD-L1 (Homo sapiens, UniProt Q9NZQ7) (assay: PD-1/PD-L1 Homogenous Time-Resolved Fluorescence (HTRF) binding assay (PD-1-Ig/PD-L1-His)). Conditions: inhibition of PD-1-Ig binding to PD-L1-TVMV-His; value given as range class; read-out: HTRF IC50.
T1 construct: hPDL1(19-239)-TVMV-His; made in house; host or cells: HEK293T
In short: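 Inhibitors pre-incubated 15 min with PD-L1-His (10 nM final), then PD-1-Ig (20 nM final) added for 15 min in dPBS/0.1% BSA/0.05% Tween-20. Eu-cryptate anti-Ig (1 nM) and APC anti-His (20 nM) added, 30 min equilibration, 665/620 nm HTRF ratio read.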

T1 sequence (Q9NZQ7 with tags, fused parts or gaps): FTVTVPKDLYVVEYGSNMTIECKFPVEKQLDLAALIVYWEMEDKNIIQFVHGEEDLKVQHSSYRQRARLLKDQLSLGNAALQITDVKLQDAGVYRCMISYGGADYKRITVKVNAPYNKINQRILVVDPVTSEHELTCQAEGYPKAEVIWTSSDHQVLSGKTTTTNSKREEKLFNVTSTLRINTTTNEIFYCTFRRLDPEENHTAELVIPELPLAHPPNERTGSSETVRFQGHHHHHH

IC50 [nM]	SMILES
10 to 99	CCCC[C@H]1C(=O)N(C)[C@@H](CCCC)C(=O)N[C@@H](CC(C)C)C(=O)N[C@H](C(=O)NCCOCCOCCOCC(=O)NCCCCCCCCCCC(=O)O)CSCC(=O)N[C@@H](Cc2ccc(O)cc2)C(=O)N(C)[C@@H](C)C(=O)N[C@@H](CC(N)=O)C(=O)N2CCC[C@H]2C(=O)N[C@@H](CO)C(=O)N[C@@H](CCC(N)=O)C(=O)N2C[C@H](O)C[C@H]2C(=O)N[C@@H](Cc2c[nH]c3ccccc23)C(=O)N[C@@H](CO)C(=O)N[C@@H](Cc2cn(CC(=O)O)c3ccccc23)C(=O)N1C [Example 11085] ({CH2CO}-Y[NMeA]NPSQ[Hyp]WS[Trp(1-CH2COOH)][NMeNle][NMeNle]LC[AEEEA][Aun]-OH; thioether N-14)
100 to 1600	CCCC[C@H]1C(=O)N(C)[C@@H](CCCC)C(=O)N[C@@H](CC(C)C)C(=O)N[C@H](C(=O)NCC(=O)N[C@@H](CCC(=O)O)C(=O)NCCOCCOCCOCCOCCOCCOCCC(=O)NC[C@H](NC(=O)CCCCCCCCCCCCCCCCC(=O)O)C(=O)O)CSCC(=O)N[C@@H](Cc2ccc(O)cc2)C(=O)N(C)[C@@H](C)C(=O)N[C@@H](CC(N)=O)C(=O)N2CCC[C@H]2C(=O)N[C@@H](CN)C(=O)N[C@@H](CC(C)C)C(=O)N2C[C@H](O)CC2C(=O)N[C@@H](Cc2c[nH]c3ccccc23)C(=O)N[C@@H](CCN)C(=O)N[C@@H](Cc2cn(CC(=O)O)c3ccccc23)C(=O)N1C (stereo partly drawn) [Example 11182] ({CH2CO}-Y[NMeA]NP[Dap]L[ξPro(4R-OH)]W[Dab][Trp(1-CH2COOH)][NMeNle][NMeNle]LCGE[PEG6]-{Dap(Nα-HOOC(CH2)16CO)OH}; thioether N-14)
10 to 99	CCCC[C@H]1C(=O)N(C)[C@@H](CCCC)C(=O)N[C@@H](CC(C)C)C(=O)N[C@H](C(=O)NCC(=O)N[C@@H](CC(=O)CCCCOCCOCCOCCCNC(=O)CC[C@H](NC(=O)CCCCCCCCCCCCCCC(=O)O)C(=O)O)C(=O)O)CSCC(=O)N[C@@H](Cc2ccc(O)cc2)C(=O)N(C)[C@@H](C)C(=O)N[C@@H](CC(N)=O)C(=O)N2CCC[C@H]2C(=O)N[C@@H](CN)C(=O)N[C@@H](CC(C)C)C(=O)N2C[C@H](O)C[C@@H]2C(=O)N[C@@H](Cc2c[nH]c3ccccc23)C(=O)N[C@@H](CCN)C(=O)N[C@@H](Cc2cn(CC(=O)O)c3ccccc23)C(=O)N1C [Example 11158] ({CH2CO}-Y[NMeA]NP[Dap]L[d(cisHyp)]W[Dab][Trp(1-CH2COOH)][NMeNle][NMeNle]LCG[X23]([γGlu-C16 diacid])-OH; thioether N-14)
10 to 99	CCCC[C@H]1C(=O)N(C)[C@@H](CCCC)C(=O)N[C@@H](CC(C)C)C(=O)N[C@H](C(=O)NCC(=O)NCC(=O)NCC(=O)NCCCCCCCCCCCCC(=O)O)CSCC(=O)N[C@@H](Cc2ccc(O)cc2)C(=O)N(C)[C@@H](C)C(=O)N[C@@H](CC(N)=O)C(=O)N2CCC[C@H]2C(=O)N[C@@H](CN)C(=O)N[C@@H](CC(C)C)C(=O)N2C[C@H](O)C[C@H]2C(=O)N[C@@H](Cc2c[nH]c3ccccc23)C(=O)N[C@@H](CCN)C(=O)N[C@@H](Cc2cn(CC(=O)O)c3ccccc23)C(=O)N1C [Example 11215] ({CH2CO}-Y[NMeA]NP[Dap]L[Hyp]W[Dab][Trp(1-CH2COOH)][NMeNle][NMeNle]LCGGG-{NH(CH2)12COOH}; thioether N-14)
0.3 to 9.9	C#CC[C@H](NC(=O)[C@@H]1CSCC(=O)N[C@@H](Cc2ccc(O)cc2)C(=O)N(C)[C@@H](C)C(=O)N[C@@H](CC(N)=O)C(=O)N2CCC[C@H]2C(=O)N[C@@H](CN)C(=O)N[C@@H](CC(C)C)C(=O)N2C[C@H](O)C[C@H]2C(=O)N[C@@H](Cc2c[nH]c3ccccc23)C(=O)N[C@@H](CCN)C(=O)N[C@@H](Cc2cn(CC(=O)O)c3ccccc23)C(=O)N(C)[C@@H](CCCC)C(=O)N(C)[C@@H](CCCC)C(=O)N[C@@H](CC(=O)O)C(=O)N1)C(=O)O [INT130AH] ({CH2CO}-Y[NMeA]NP[Dap]L[Hyp]W[Dab][Trp(1-CH2COOH)][NMeNle][NMeNle]DC[Pra]-OH; thioether N-14)
10 to 99	CCCCCCCCCCCCCCCC(=O)NCCCC[C@H](NC(=O)[C@H](CC(=O)O)CC(=O)CCOCCOCCOCCOCCOCCOCCNC(=O)[C@H](CC(=O)O)NC(=O)CNC(=O)C1CSCC(=O)N[C@@H](Cc2ccc(O)cc2)C(=O)N(C)[C@@H](C)C(=O)N[C@@H](CC(=O)O)C(=O)N2CCC[C@H]2C(=O)N[C@@H](Cc2cnc[nH]2)C(=O)N[C@@H](CC(C)C)C(=O)N2C[C@H](O)C[C@H]2C(=O)N[C@@H](Cc2c[nH]c3ccccc23)C(=O)N[C@@H](CO)C(=O)N[C@@H](Cc2c[nH]c3ccccc23)C(=O)N(C)[C@@H](CCCC)C(=O)N(C)[C@@H](CCCC)C(=O)N[C@@H](CCCNC(=N)N)C(=O)N1)C(N)=O (stereo partly shown) [Example 11018] ({CH2CO}-Y[NMeA]DPHL[Hyp]WSW[NMeNle][NMeNle]R[ξC]GD-X31; thioether N-14)
10 to 99	CCCC[C@H]1C(=O)N(C)[C@@H](CCCC)C(=O)N[C@@H](CC(C)C)C(=O)N[C@H](C(=O)N[C@@H](CC(=O)O)C(=O)N[C@@H](CC(=O)NCCCOCCOCCOCCCNC(=O)CC[C@H](NC(=O)CCCCCCCCCCCCCCCCCCC(=O)O)C(=O)O)C(=O)O)CSCC(=O)N[C@@H](Cc2ccc(O)cc2)C(=O)N(C)[C@@H](C)C(=O)N[C@@H](CC(N)=O)C(=O)N2CCC[C@H]2C(=O)N[C@@H](CN)C(=O)N[C@@H](CC(C)C)C(=O)N2C[C@H](O)C[C@H]2C(=O)N[C@@H](Cc2c[nH]c3ccccc23)C(=O)N[C@@H](CCN)C(=O)N[C@@H](Cc2cn(CC(=O)O)c3ccccc23)C(=O)N1C [Example 11252] ({CH2CO}-Y[NMeA]NP[Dap]L[Hyp]W[Dab][Trp(1-CH2COOH)][NMeNle][NMeNle]LCDD(X12)-OH; thioether N-14)
